From ChEMBL document CHEMBL3232986, “Identification of a novel series of potent HCV NS5B Site I inhibitors” (Bioorg Med Chem Lett, 2014) come the findings set out here.

For one data set, the system named is Hepatitis C virus. The data set can be described thus: Antiviral activity against HCV genotype 1a H77c infected in human HuH7 cells after 3 days by luciferase reporter gene assay. It is filed as functional, cell-based, Hepacivirus hominis. The conditions noted are these: Huh-7, 72 h. For orientation: Reporter assays use an easily measured gene product as a stand-in for the process of interest.

Data set [1] can be described thus: Inhibition of HCV genotype 1b wild type NS5B polymerase using biotinylated oligo dT12 primer as substrate after 4 hrs in presence of [3H]UTP. Further details: species or system Hepatitis C virus subtype 1b.
A short description of data set [2]: Permeability of the compound at pH 7.4 by PAMPA. It counts as physicochemical. The conditions noted are these: read-out: permeability. A general note: In PAMPA a lipid-coated filter parts donor from acceptor wells.
Data set [3] in a line: Cytotoxicity against human HuH7 cells after 4 hrs by CellTitre-Blue assay. It is filed as cell-based, Huh-7.
A short description of data set [4]: Ratio of EC50 for HCV genotype 1a H77c replicon cells to IC50 for HCV genotype 1b wild type NS5B polymerase. (Replicon systems follow genome replication, usually without infectious particles.)
A short description of data set [5]: (§1) Plasma concentration in rat at 5 mg/kg, iv after 6 hrs. Further details: dose 5 mg/kg, route intravenous. As to conditions: plasma. It counts as ADME, organism-based.
The nature of data set [6]: (§2) Plasma concentration in rat at 10 mg/kg, po after 6 hrs. The conditions noted are these: plasma. More on the design: dose 10 mg/kg, route oral. It is filed as ADME, organism-based.
Data set [7] in a line: (§3) Drug uptake in rat liver 10 mg/kg, po after 6 hrs. As to conditions: liver, read-out: Drug uptake. Further details: dose 10 mg/kg, route oral. It is filed as ADME, organism-based.
A short description of data set [8]: Clearance in rat after 6 hrs. It counts as ADME, organism-based. As to conditions: in vivo.
The nature of data set [9]: (§4) Drug uptake in rat liver at 5 mg/kg, iv after 6 hrs. It is filed as ADME, organism-based. More on the design: dose 5 mg/kg, route intravenous. As to conditions: liver, read-out: Drug uptake.
A short description of data set [10]: Cytotoxicity against human HuH7 cells after 3 days by Alamar blue assay. It counts as cell-based, Huh-7.
Data set [11] can be described thus: Half life in dog liver microsomes. It counts as ADME, Canis lupus familiaris.
A short description of data set [12]: Half life in monkey liver microsomes. It is filed as ADME, Macaca mulatta. As to conditions: rhesus monkey.
Data set [13] can be described thus: Inhibition of CYP (unknown origin). The conditions noted are these: human. It counts as ADME.
Data set [14] in a line: Permeability of the compound at pH 5.5 by PAMPA. It is filed as physicochemical. The conditions noted are these: read-out: permeability.
A further data set concerns Liver microsome. The data set can be described thus: Metabolic stability in human liver microsomes. It counts as ADME.
Data set [15] deals with Plasma. The description is as §1. It counts as ADME, organism-based. Further details: dose 5 mg/kg, route intravenous. The conditions noted are these: in vivo, 6 h, BLD = below limit of detection.
In data set [16] the test system is Plasma. The description is as §2. It is filed as ADME, organism-based. More on the design: dose 10 mg/kg, route oral. The conditions noted are these: in vivo, 6 h, BLD = below limit of detection.
Data set [17] deals with Liver. The description is as §3. It is filed as ADME, organism-based. Further details: dose 10 mg/kg, route oral. The conditions noted are these: in vivo, 6 h, BLD = below limit of detection.
In data set [18] the test system is Liver. Described as §4. It is filed as ADME, organism-based. More on the design: dose 5 mg/kg, route intravenous. The conditions noted are these: in vivo, 6 h, BLD = below limit of detection.

Take `CNC(=O)N1CC23COCC2(C1)CN(C(=O)[C@]12C[C@H]1c1cc(OC)ccc1-c1c(C4CCCCC4)c4ccc(C(=O)NS(=O)(=O)N(C)C)cc4n1C2)C3` (some centres undefined): in the data set on Hepatitis C virus, the concentration giving a half-maximal response (EC50) (commonly the midpoint of the concentration-response curve) is 86 nM. For the same molecule, in data set [1], the IC50 (in general, the concentration needed to halve the response being measured) is 2 nM. For the same molecule, the Papp in data set [2] was 3.7 ×10⁻⁶ cm/s. In addition, in [3], the midpoint of cytotoxicity, the CC50 at 4 h, lay at 96000 nM. In addition, the Ratio in data set [4] stood at 43.
In the case of `COc1ccc2c(c1)[C@@H]1C[C@]1(C(=O)N1CC34COCC3(CN(C)C4)C1)Cn1c-2c(C2CCCCC2)c2ccc(C(=O)NS(=O)(=O)C(C)C)cc21` (some centres undefined), the EC50 with Hepatitis C virus stood at 1 nM. Besides, the concentration at 6 h in data set [5] is 6 nM; in [6] it was 2 nM; in data set [7], 38 nM; in data set [9], 52 nM. The concentration for half-maximal inhibition (IC50) in data set [1] was determined as 4 nM. For the same molecule, the clearance (usually a measure of how efficiently the substance is removed, as volume per time) in [8] is 27 mL/min/kg. Besides, the midpoint of cytotoxicity in data set [10], the CC50 at 72 h, lay at 14000 nM.
For `COc1ccc2c(c1)[C@@H]1C[C@]1(C(=O)N1CC34CCC3(CN(C(=O)N(C)C)C4)C1)Cn1c-2c(C2CCCCC2)c2ccc(C(=O)NS(=O)(=O)C(C)C)cc21` (some centres undefined), the EC50 in the data set with Hepatitis C virus was 12 nM. In addition, the IC50 in data set [1] amounted to 3 nM. Besides, the half-life (commonly the time needed for the level to fall by half in the phase considered) in data set [11] was 22 min; in data set [12], 24 min. In addition, the CC50 (in general, the concentration at which the toxic effect on the cells reaches its halfway point) at 4 h in data set [3] was 16000 nM.
In the data set with Hepatitis C virus, `COc1ccc2c(c1)[C@@H]1C[C@]1(C(=O)N1CC34CCC3(C1)CN(S(=O)(=O)C(C)C)C4)Cn1c-2c(C2CCCCC2)c2ccc(C(=O)NS(=O)(=O)N(C)C)cc21` (some centres undefined) gave an EC50 of 6 nM. Further, in data set [1], the IC50 came to 3 nM. The “inhibition (INH)” value in data set [13] is “Active”. In data set [3], the midpoint of cytotoxicity, the CC50 at 4 h, lay at 5000 nM.
`COc1ccc2c(c1)[C@@H]1C[C@]1(C(=O)N1CC34CCC3(CN(C(=O)N3CCOCC3)C4)C1)Cn1c-2c(C2CCCCC2)c2ccc(C(=O)NS(=O)(=O)N(C)C)cc21` (some centres undefined): the response with Hepatitis C virus was half-maximal at 15 nM (EC50). Moreover, in data set [1], the IC50 was 2 nM. Further, the Papp in [2] worked out at 25.9 ×10⁻⁶ cm/s; in data set [14], 11.3 ×10⁻⁶ cm/s. The molecule further gave a CC50 at 4 h in [3] of 21000 nM.
`CCOCCN1CC23CCC2(C1)CN(C(=O)[C@]12C[C@H]1c1cc(OC)ccc1-c1c(C4CCCCC4)c4ccc(C(=O)NS(=O)(=O)C(C)C)cc4n1C2)C3` (some centres undefined) registered an EC50 with Hepatitis C virus of 15 nM. Further, in data set [3], the CC50 at 4 h is 10000 nM. Besides, the Stability result in the data set with Liver microsome is recorded as “Unstable”.
As for `COc1ccc2c(c1)[C@@H]1C[C@]1(C(=O)N1CC34COCC3(CN(C(C)=O)C4)C1)Cn1c-2c(C2CCCCC2)c2ccc(C(=O)NS(=O)(=O)N(C)C)cc21` (some centres undefined), a half-maximal response in the data set on Hepatitis C virus (EC50) required 8 nM. Besides, the Cp entry in the data set on Plasma [15] and in the data set with Plasma [16] was “BLD” throughout. Moreover, the IC50 in data set [1] worked out at 2 nM. Moreover, the Drug uptake entry in the data set with Liver [17] and in the data set on Liver [18] was “BLD” in each case. The molecule further registered a clearance in data set [8] of 19 mL/min/kg. This molecule also gave a 50% cytotoxic concentration (CC50) at 72 h in data set [10] of 24000 nM. The Ratio in [4] worked out at 4.
